# Measured values as given in article PMC4666614, “Identification of New Regions in HIV-1 gp120 Variable 2 and 3 Loops that Bind to α4β7 Integrin Receptor” (PLoS ONE, 2015).
# Values joined by “and” are separate entries in the source; they are usually repeats but may differ in a detail not shown here. Equal values may be shown once. Bridge positions count the residues as written; N and C are the ends. Ends that are not written are not given here.
# Assays:
# α4β7 on RPMI8866 cells [1] = test: Binding of α4β7 on RPMI8866 cells to plate-bound biotinylated V2/V3 peptides and its inhibition by ACT-1 (AlamarBlue); type: cell-based, human; conditions: streptavidin plate, biotinylated peptide 5 μg/ml; cells pre-incubated with ACT-1 0.5 μg/ml 45 min 37°C; 8 hour time point; average of 3 to 12 experiments in duplicate or triplicate
# Experimental: Triplicate wells of a 96-well U-bottom polystyrene plate (Immunlon) were coated overnight at 4°C with 100 μl of 2 μg/ml of MAdCAM-1 or Streptavidin diluted in 0.05 M bicarbonate buffer, pH 9.6. The streptavidin-coated plates were then incubated with biotinylated cyclic or linear V2 peptides or cyclic V3 peptides (5 μg/ml in bicarbonate buffer, See Table 1 for sequence data) for 1 hour at 37°C. The solution from the plates was discarded and the plates were then blocked with blocking buffer (25 mM TRIS, 2.7 mM potassium chloride, 150 mM sodium chloride, 0.5% casein, 4 mM manganese chloride, pH 7.2) for 1 hour at 37°C. The solution was discarded and the plates were incubated with sample buffer (25 mM TRIS, 2.7 mM potassium chloride, 150 mM sodium chloride, 4 mM manganese chloride, pH 7.2 containing 1% fetal bovine sera) for 45 minutes at 37°C. Plates were manually washed 4 times with blocking buffer followed by the addition of 2 x 10^5 RPMI8866 cells/well that had been pre-incubated for 45 minutes at 37°C with sample buffer, with sample buffer containing 0.5 μg/ml of mAb ACT-1 or as a control, normal mouse serum (1:100). Plates were then incubated at 37°C (5% CO2) for 1 hour, washed 5 times with wash buffer followed by the addition of 100 μl of RPMI-1640 containing 1% FBS, pen/strep/glutamine. The adhered cells were detected by the addition of 10 μl of AlamarBlue® dye. Plates were incubated at 37°C (5% CO2) for 8 hours. Fluorescence was measured at 2 hour intervals using a M2 plate reader. For each condition, a minimum of 2 to 12 independent experiments run in duplicate or triplicate was performed. The optimum amount of coating proteins/peptides and the amount of ACT-1 required to inhibit α4β7 on RPMI8866 cells was determined in separate experiments (data not shown).
# [2] = tested on: α4β7 integrin binding to MAdCAM-1; test: Competitive inhibition of binding of α4β7 on RPMI8866 cells to MAdCAM-1 by peptides, viruses, IMCs and controls; type: cell-based, human; conditions: for Inhibition of α4β7 integrin binding to MAdCAM-1 by peptide (competition): peptide 10 μg/ml, cells pre-incubated 45 min 37°C, 2–4 experiments in triplicate; for % Inhibition ± SD of α4β7 integrin binding to MAdCAM-1: average of 3–7 experiments in triplicate
# Experimental: 96-well plates were coated with MAdCAM-1 as described above. RPMI8866 cells (2 X 10^6/ ml) were incubated with cyclic V2 or V3 MN, TH023, or acute subtype C (C-6980v0c22) peptides or with scrambled flanking region (SFL) or the mid region (SMR) TH023 V2 or with a completely scrambled (SCR) TH023 peptide (10 μg/ml) for 45 minutes at 37°C before being added in triplicate to the MAdCAM-1 coated plates for 1 hour at 37°C. In concurrent experiments, RMI8866 cells were incubated with purified primary HIV-1 (0.75 ng to 6 ng/well p24) subtype B (SF162, US-1, JRFL), subtype CRF01_AE viruses (92TH023), IMCs (0.75 ng to 1000 ng/well p24 in each case) containing acute or chronic envelopes (Acute CRF01_AE (703357) [GenBank:JN944658], C (C-6980v0c22) [GenBank:HM215344], A(851891); Chronic CRF01_AE (CM235.2) [AF259954.1], C (ET02220LucR) [U46016]) or with pSG3Δenv. pSG3Δenv contained a four-nucleotide insertion mutation (CTAG) in Env, leading to a translation stop codon after amino acid residue 142. The pSG3Δenv clone is routinely used for generating Env pseudotyped infectious virions.
# Viruses were tested in triplicate in two independent experiments. In additional experiments, mannose, HIV-1 p24, and ovalbumin (0.2–10 μg/ml) were used in the competition assay as nonspecific protein controls (data in Table 2; 3–7 experiments performed in triplicate), whereas, an anti-RSV mAb, Synagis® was used as a nonspecific antibody control. Synagis® was incubated for 45 minutes with either MAdCAM-1 or with RPMI8866 cells and then placed in the assay system. The remainder of the assay was similar to that described above. Significance was determined by paired Student’s t test.
# α4β7 on RPMI8866 cells [3] = test: Flow cytometry binding of ACT-1, gp120 and cyclic V2 peptides to RPMI8866 cells; parameters: species or system human; conditions: gp120 2.5 μg (anti-gp145 + anti-mouse Texas Red); biotinylated peptides 1 μg and 5 μg (neutrAvidin-PE); 30 min on ice; n = 2
# Experimental: RPMI8866 cells (0.5 x10^6) were incubated for 30 minutes on ice with 10% normal goat sera in PBS to block the Fc receptors. Cells were suspended in cold FACS buffer (PBS-containing 0.5% BSA) and incubated at room temperature for 30 minutes with the mAb ACT-1 conjugated to APC (1 μg). Cells were washed twice with cold FACS buffer, fixed with 2% formaldehyde in PBS, and analyzed on a LSRII flow cytometer. The data was analyzed using FlowJo8.8.6 software (TreeStar Inc.).
# RPMI8866 cells (1 x10^6) were suspended in cold FACS buffer (PBS-containing 0.5% BSA) and incubated at room temperature for 30 minutes with LIVE ⁄ DEAD® Fixable Dead Cell Stain (Life Technologies) as per the manufacturer’s instruction. Cells were washed twice with cold FACS buffer before being incubated with 10% goat sera in PBS for 30 minutes on ice. All subsequent incubations were carried out for 30 minutes on ice. CHO- expressed HIV-1IIIB rgp120 (2.5 μg) and biotinylated cyclic V2-TH023 peptide (1 μg and 5 μg) were incubated with RPMI8866 cells. […] Cells were washed twice with cold FACS buffer, fixed with 2% formaldehyde in PBS, and analyzed on a LSRII flow cytometer. The data was analyzed using FlowJo8.8.6 software (TreeStar Inc.).
Compound,Percent inhibition by ACT-1 of binding of α4β7 on RPMI8866 cells to the plate-bound peptide (α4β7 on RPMI8866 cells [1]) [%],Inhibition of α4β7 integrin binding to MAdCAM-1 by peptide (competition) [2],other results
"CTRPSNNTRTSINIGPGQVFYRTGDIIGDIRKAYC (disulfide 1-35 (inferred)) [Cyclic V3 TH023, cyclic V3 loop peptide, strain 92TH023, HXB2 295–331]",67.6,80–90% and 80%,–
Synagis: anti-RSV mAb used as a nonspecific antibody control [reference compound],–,–,"Inhibition of α4β7 binding to MAdCAM-1 by nonspecific antibody control ([2]; mAb incubated 45 min either with MAdCAM-1-coated plate or with RPMI8866 cells, 3 experiments): did not inhibit the α4β7 binding"
"CSFNITTSIGDKMQKEYALLYKLDIEPIDNDSTSYRLISC (disulfide 1-40 (inferred)) [Cyclic V2 MN, cyclic V2 loop peptide based on MN strain (subtype B)]",66.3,–,–
"CTRPNNNTRKSIRIGPGQTFYATGDIIGDIRQAYC (disulfide 1-35 (inferred)) [Cyclic V3 Acute C, cyclic V3 loop peptide based on acute C strain C06980v0c22]",70.0,–,–
"OC[C@H]1OC(O)[C@@H](O)[C@@H](O)[C@@H]1O (stereo partly drawn) [Mannose, mannose, reference compound]",–,–,"% Inhibition ± SD of α4β7 integrin binding to MAdCAM-1 ([2]; 0.2 μg/ml): 6.7 ± 7.6%; % Inhibition ± SD of α4β7 integrin binding to MAdCAM-1 ([2]; 1.0 μg/ml): 7.6 ± 8.8%; % Inhibition ± SD of α4β7 integrin binding to MAdCAM-1 ([2]; 5 μg/ml): 16.3 ± 14.9%; % Inhibition of α4β7 integrin binding to MAdCAM-1 ([2]; 10 μg/ml, average of triplicate determinations from a single experiment): 0%; Inhibition of α4β7 integrin binding to MAdCAM-1 by nonspecific controls (in words) ([2]; 0.2–10 μg/ml): no significant inhibition"
"CTRPNYNKRKRIHIGPGRAFYTTKNIKGTIRQAHC (disulfide 1-35 (inferred)) [Cyclic V3 MN, cyclic V3 loop peptide based on MN strain (subtype B)]",75.5,80%,–
"CSFNITTELRDKRKKEHALFNNLDIVQLDGNSSLYRLINC (disulfide 1-40 (inferred)) [Cyclic V2 Acute C, cyclic V2 loop peptide based on acute C strain C06980v0c22]",72.3,–,–
"CSFNMTTELRDKKQKVHALFYKLDIVPIEDNTSSSEYRLINC (disulfide 1-42 (inferred)) [Cyclic V2 TH023, biotinylated cyclic V2 loop peptide of gp120, strain 92TH023 (CRF01_AE), HXB2 157–196]",62.9,80–90%,Binding to α4β7 on RPMI8866 cells (flow cytometry) (α4β7 on RPMI8866 cells [3]): bound to α4β7
gp120: HIV-1IIIB rgp120 (CHO expressed) [reference compound],–,–,Binding to α4β7 on RPMI8866 cells (flow cytometry) (α4β7 on RPMI8866 cells [3]): bound to α4β7
"XSFNMTTELRDKKQKVHALFYKLDIVPIEDNTSSSEYRLINX [Linear V2 TH023, linear V2 92TH023 peptide with S-methyl Cysteine at both ends]",65.5,–,–
